Laboratory results: ChEMBL document CHEMBL1201862, “PubChem BioAssay data set” (2004)
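Interpolation was linear, between the two tested concentrations surrounding the appropriate level; five concentrations were tested over 48 hours in 96-well plates. GI50 marks 50% less growth.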 Active and inactive are the calls of the source. Cut-off read from the data, not from the text of the source: active = GI50 up to about 1.1 µM and inactive = higher.

Key:
Experiment in all cases: DTP human tumour cell line panel, 48 h
ACHN = system: ACHN
SK-OV-3 = system: SK-OV-3
MCF7 = system: MCF7
RPMI-8226 = system: RPMI-8226
HOP-92 = system: HOP-92
RXF 393 = system: RXF 393
U-251 = system: U-251
A549 = system: A549
K562 = system: K562
TK-10 = system: TK-10
EKVX = system: EKVX
PC-3 = system: PC-3
OVCAR-4 = system: OVCAR-4
UO-31 = system: UO-31
SR = system: SR
T47D = system: T47D
IGROV-1 = system: IGROV-1
CCRF-CEM = system: CCRF-CEM
HCC 2998 = system: HCC 2998
UACC-257 = system: UACC-257

Measured: GI50

c1ccc(CN2CCC(CNc3ncnc4ccccc34)C2)cc1 (configuration not stated)
inactive: ACHN > 100 µM | SK-OV-3 > 100 µM | MCF7 50.2 µM | RPMI-8226 9.02 µM | HOP-92 34.8 µM | RXF 393 > 100 µM | U-251 76.9 µM | A549 > 100 µM | K562 23 µM | TK-10 44.5 µM | EKVX 25.1 µM | PC-3 95.3 µM | OVCAR-4 35.8 µM | UO-31 63.1 µM | SR 17.2 µM | T47D 93.5 µM | IGROV-1 > 100 µM | CCRF-CEM 41 µM

Cc1ccc(NC(=O)c2cccc(OP(=O)(Nc3ccc(C)cc3)Nc3ccc(C)cc3)c2)cc1
inactive: ACHN 4 µM | SK-OV-3 24.9 µM | MCF7 5.62 µM | HOP-92 3.23 µM | RXF 393 1.91 µM | U-251 6.58 µM | HCC 2998 5.21 µM | A549 3.46 µM | K562 > 100 µM | TK-10 7.52 µM | EKVX 7.94 µM | UACC-257 11.9 µM | PC-3 7.78 µM | OVCAR-4 14 µM | UO-31 4.53 µM | SR 3.4 µM | T47D 5.53 µM | IGROV-1 15.1 µM | CCRF-CEM 13.8 µM

O=C1/C(=C/c2ccc(Cl)cc2)CSc2ccccc21
inactive: SK-OV-3 31.8 µM | MCF7 2.26 µM | RPMI-8226 2.31 µM | HOP-92 33.6 µM | RXF 393 18.2 µM | U-251 5.87 µM | A549 45.5 µM | K562 3.37 µM | TK-10 42.2 µM | UACC-257 12.7 µM | PC-3 14.1 µM | OVCAR-4 36.1 µM | UO-31 17.6 µM | SR 5 µM | T47D 28 µM | IGROV-1 23.7 µM | CCRF-CEM 3.1 µM

C=CC(C)(O)/C=C/C=C(\C)C(CC1OC1(C)C)OC(=O)/C(C)=C\C (configuration not stated)
inactive: ACHN > 100 µM | SK-OV-3 > 100 µM | MCF7 > 100 µM | RPMI-8226 > 100 µM | HOP-92 > 100 µM | RXF 393 > 100 µM | U-251 > 100 µM | HCC 2998 > 100 µM | A549 > 100 µM | K562 > 100 µM | TK-10 > 100 µM | EKVX > 100 µM | UACC-257 > 100 µM | PC-3 > 100 µM | OVCAR-4 > 100 µM | UO-31 > 100 µM | SR > 100 µM | T47D > 100 µM | IGROV-1 > 100 µM

O=c1c(Cl)c(Cl)c(=O)c2sc3cc(Cl)ccc3[nH]c1=2
inactive: ACHN 53.1 µM | SK-OV-3 > 100 µM | MCF7 73.3 µM | RPMI-8226 4 µM | HOP-92 16.7 µM | RXF 393 66.4 µM | U-251 31.4 µM | A549 > 100 µM | K562 15.5 µM | TK-10 65.6 µM | EKVX 14 µM | UACC-257 15.3 µM | PC-3 32.6 µM | OVCAR-4 5.66 µM | UO-31 18.2 µM | SR 7.48 µM | T47D 25.9 µM | IGROV-1 10.5 µM

Cc1cc(C)c2nc3c(c(C(O)C4CCCCN4)c2c1)CC/C3=C\c1ccc(Cl)cc1 (configuration not stated)
inactive: ACHN 78.3 µM | SK-OV-3 74.3 µM | MCF7 46.6 µM | RPMI-8226 40.7 µM | HOP-92 > 100 µM | RXF 393 27.7 µM | U-251 60.4 µM | A549 76 µM | K562 38 µM | TK-10 > 100 µM | EKVX 43.2 µM | UACC-257 32.8 µM | PC-3 54.1 µM | OVCAR-4 58.9 µM | SR 34.2 µM | T47D 30.3 µM | IGROV-1 84.1 µM | CCRF-CEM 25.4 µM

N=C(N)N/N=C/c1nc2sccn2c1[N+](=O)[O-]
inactive: ACHN 60.3 µM | SK-OV-3 52.5 µM | MCF7 18 µM | RPMI-8226 82.4 µM | HOP-92 68.9 µM | RXF 393 8.77 µM | U-251 28.6 µM | A549 35.4 µM | K562 18.7 µM | TK-10 85.3 µM | EKVX 34.2 µM | UACC-257 16.3 µM | PC-3 35.2 µM | OVCAR-4 13.7 µM | UO-31 65.3 µM | SR 33.2 µM | T47D 18.2 µM | IGROV-1 60.4 µM

COc1ccc(CN(Cc2ccc(OC)cc2)C(=O)CC2(O)CCc3ccccc3C2)cc1 (configuration not stated)
inactive: ACHN 49.8 µM | SK-OV-3 > 100 µM | MCF7 41.2 µM | RPMI-8226 62.2 µM | HOP-92 > 100 µM | U-251 63.1 µM | HCC 2998 68.9 µM | A549 30.1 µM | K562 > 100 µM | TK-10 > 100 µM | EKVX 37.5 µM | UACC-257 42.8 µM | PC-3 17.2 µM | OVCAR-4 57 µM | UO-31 15.1 µM | SR 16 µM | T47D 8.71 µM | IGROV-1 > 100 µM | CCRF-CEM 16.6 µM

COc1ccc2cc(NC(=O)Nn3cnnc3)ccc2c1
inactive: ACHN > 100 µM | SK-OV-3 > 100 µM | MCF7 > 100 µM | RPMI-8226 > 100 µM | HOP-92 > 100 µM | U-251 > 100 µM | HCC 2998 > 100 µM | A549 > 100 µM | K562 > 100 µM | TK-10 > 100 µM | EKVX 80.7 µM | UACC-257 > 100 µM | PC-3 > 100 µM | OVCAR-4 > 100 µM | UO-31 > 100 µM | SR > 100 µM | T47D > 100 µM | IGROV-1 > 100 µM | CCRF-CEM > 100 µM

CCOP1(=O)OCC2OC(n3cnc4c(N)ncnc43)C(O)C2O1.c1ccccc1 (configuration not stated)
inactive: ACHN > 100 µM | SK-OV-3 > 100 µM | MCF7 > 100 µM | RPMI-8226 > 100 µM | HOP-92 > 100 µM | RXF 393 > 100 µM | U-251 > 100 µM | A549 > 100 µM | K562 > 100 µM | TK-10 > 100 µM | EKVX > 100 µM | UACC-257 > 100 µM | PC-3 > 100 µM | OVCAR-4 > 100 µM | UO-31 > 100 µM | SR > 100 µM | T47D > 100 µM | IGROV-1 > 100 µM

O=c1[nH][nH]c(=S)c(=O)[nH]1
inactive: ACHN > 100 µM | SK-OV-3 > 100 µM | MCF7 > 100 µM | RPMI-8226 > 100 µM | HOP-92 > 100 µM | RXF 393 > 100 µM | U-251 > 100 µM | A549 > 100 µM | K562 > 100 µM | TK-10 > 100 µM | EKVX > 100 µM | UACC-257 > 100 µM | PC-3 > 100 µM | OVCAR-4 > 100 µM | UO-31 > 100 µM | SR > 100 µM | T47D > 100 µM | IGROV-1 > 100 µM | CCRF-CEM > 100 µM
